The record followed here is patent US20210353595A1, “USE OF MELATONIN IN PREPARATION OF MEDICAMENT FOR INHIBITING AND/OR KILLING BACTERIUM” (priority 2020, published 2021).

The test system of one test is P. multocida cells. The test can be described thus: SEM and TEM morphology of bacterial cells. In kind it is cell-based, Pasteurella multocida. The conditions noted are these: combined action of melatonin and citric acid; FIG. 18. As for the experimental part: The effect of melatonin on the morphologies of P. multocida cells were evaluated employing SEM and TEM. 1 mL of fresh Pasteurella multocida (1×10^9 CFU) at the logarithmic growth stage was added into 100 mL of fresh Martin liquid medium containing different concentrations (1, 2 or 3 mg/mL) of MT. MT-free DMSO was used as a solvent control group and ampicillin (100 μg/mL) was used as a positive control group. All cultures were shaken at 220 rpm in a shaker at 37° C. for 8 hours, 12 hours or 16 hours. The bacterial samples were centrifuged at 3000 r/min for 10 minutes, the supernatant was removed, and cells were collected and washed with PBS for 3 times. Then the cells were fixed with a fixation solution of 2.5% fresh glutaraldehyde for 6 hours, and washed with PBS for 3 times, each time for 10 minutes. Subsequently, the SEM samples were dehydrated with 50%, 70%, 80% and 90% ethanol for 15 minutes respectively, and then dehydrated with 100% ethanol for 3 times, each time for 30 minutes. Ethanol was removed by washing with tert-butyl alcohol for three times, each time for 30 minutes. The samples were dried by a freeze dryer and plated with 10 nm of gold film by an ion sputtering device. The samples were examined using a field scanning electron microscope (FESEM, Hitch SU8010).
The TEM samples were fixed with 1%-2% […] for 2-3 hours, and washed with […] 3 times, each time for 10 minutes. The samples were dehydrated with 30%, 50%, 70%, 80% and 90% ethanol for 20 minutes respectively, and then dehydrated with 100% ethanol 3 times, each time for 30 minutes. Ethanol was replaced with acetone three times, each time for 30 minutes. The bacterial samples were placed on a copper grid with a formvar membrane, and negatively stained with phosphotungstic acid (2% v/v, pH=6.7). The surface area of the sample was less than 0.2 mm×0.2 mm, and slice thickness was between 50 and 90 nm (Lycra UC7). The samples were detected by TEM (Hitachi H-7650) at 80 kV, and photographs of the samples were taken by a Gatan832 CCD camera (Gatan). […]

Test [1] has as its system Pasteurella multocida. The test can be described thus: Growth curve with exogenous citric acid. In kind it is cell-based. The following applies: citric acid 1, 2, 3 mg/mL alone; FIG. 16. As for the experimental part:
Here, 1 mL of Pasteurella multocida (1×10^9 CFU) at the logarithmic growth stage was added into 100 mL of fresh and sterile Martin broth medium containing different concentrations of citric acid (CA-1 mg/ml, CA-2 mg/mL, and CA-3 mg/mL), and citric acid-free DMSO was used as a solvent control group. The bacterial cells were cultured in a constant-temperature shaker at 37° C. and 220 rpm for […]. Then, the growth curve of the cells was determined. Each experiment was repeated for three times, and each group was set in triplicate.

Test [2] deals with Pasteurella multocida. The test can be described thus: Growth curve with melatonin and citric acid. In kind it is cell-based. The following applies: MT 1-3 mg/mL with CA 1-3 mg/mL, 12 h; FIG. 17.
Description: 1 mL of Pasteurella multocida (1×10^9 CFU) at the logarithmic growth stage was also added into 100 mL of fresh and sterile Martin broth medium containing different concentrations of melatonin and citric acid (CA) (MT-1 mg/mL, MT-1 mg/mL-CA-1 mg/mL, MT-1 mg/mL-CA-2 mg/mL, MT-1 mg/mL-CA-3 mg/mL; MT-2 mg/mL, MT-2 mg/mL-CA-1 mg/mL, MT-2 mg/mL-CA-2 mg/mL, MT-2 mg/mL-CA-3 mg/mL; MT-3 mg/mL, MT-3mg/mL-CA-1 mg/mL, MT-3 mg/mL-CA-2 mg/mL, and MT-3 mg/mL-CA-3 mg/mL). DMSO not containing melatonin and citric acid was used as a solvent control group, and the bacterial cells were cultured in a constant-temperature shaker at 37° C. and 220 rpm for 12 h. Then the growth curve of the cells were determined. Each experiment was carried out for three times, and each group was set in triplicate.
Test [3] has as its system Pasteurella multocida. The test can be described thus: Leakage of cell contents with melatonin and citric acid. In kind it is cell-based. The conditions noted are these: MT with CA (1/1, 2/2, 3/3 mg/mL), 12 h. As for the experimental part:
Additionally, 1 mL of Pasteurella multocida (1×10^9 CFU) at the logarithmic growth stage was added into 100 mL of fresh and sterile Martin broth medium containing different concentrations of melatonin and citric acid (CA) (MT-1 mg/mL, MT-2 mg/mL, MT-3 mg/mL, CA-1 mg/mL, CA-2 mg/mL, CA-3 mg/mL, MT-1 mg/mL-CA-1 mg/mL, MT-2 mg/mL-CA-2 mg/mL, MT-3 mg/mL-CA-3 mg/mL). The melatonin-free DMSO was used as a solvent control group, and the bacterial cells were cultured in a shaker at 37° C. and 220 rpm for 12 h. Thereafter, 1 mL of the bacterial solution was taken and centrifuged at 3000 r/min for 10 minutes, and the supernatant and precipitated cells were collected, respectively. At the same time, 2.5 mmol/mL of […] (ONPG) and Pasteurella multocida were added to detect ([…]. The concentrations of protein, alkaline phosphatase (AKP) and reducing sugar in the supernatant were determined sequentially using respective determination kits. The β-galactosidase in the supernatant was determined by measuring the optical density at 420 nm (OD420). Each experiment was carried out for three times, and each group was set in triplicate.

The next test deals with Klebsiella pneumoniae. The test can be described thus: Growth curve with melatonin and citric acid. The conditions noted are these: MT 1-3 mg/mL with CA 1-3 mg/mL, FIG. 27. In kind it is cell-based. As for the experimental part:
(§1) In additional studies, 1 mL of Klebsiella pneumoniae, Pseudomonas aeruginosa, Diplococcus pneumoniae and Streptococcus pneumoniae at the logarithmic growth stage was added into 100 mL of fresh and sterile Martin broth medium containing different concentrations of melatonin and citric acid (CA) (MT-1 mg/mL, MT-1 mg/mL-CA-1 mg/mL, MT-1 mg/mL-CA-2 mg/mL, MT-1 mg/mL-CA-3 mg/mL; MT-2 mg/mL, MT-2 mg/mL-CA-1 mg/mL, MT-2 mg/mL-CA-2 mg/mL, MT-2 mg/mL-CA-3 mg/mL; MT-3 mg/mL, MT-3 mg/mL-CA-1 mg/mL, MT-3 mg/mL-CA-2 mg/mL MT-3 mg/mL-CA-3 mg/mL).

For another test, the system named is Pseudomonas aeruginosa. The test can be described thus: Growth curve with melatonin and citric acid. In kind it is cell-based. The conditions noted are these: MT 1-3 mg/mL with CA 1-3 mg/mL, FIG. 27. As for the experimental part:
as §1

Regarding `O=C(O)CC(O)(CC(=O)O)C(=O)O` [citric acid], the “cytoplasmic vacuolization and irregular cell membrane caused by melatonin (TEM)” value in the test with P. multocida cells is “disappeared”. Further, the “growth of Pasteurella multocida” value in the test with Pasteurella multocida [1] is listed as “promotes the growth”. In the test with Pasteurella multocida [2], the “effect of added citric acid on antibacterial activity of melatonin” value is reported as “reduces the antibacterial activity of melatonin”. Moreover, in the test with Pasteurella multocida [3] (FIG. 19), the “melatonin-induced release of reducing sugar” value was “significantly reduces”. For the same compound, in the test with Pasteurella multocida [3] (FIG. 20), the “melatonin-induced release of proteins” value was “significantly reduces”. Besides, the “melatonin-induced release of AKP enzymes (alkaline phosphatase)” value with Pasteurella multocida [3] (FIG. 21) is recorded as “significantly reduces”. For the same compound, in the test on Pasteurella multocida [3] (FIG. 22), the “melatonin-induced release of β-galactosidase” value is “significantly reduces”. Moreover, the “melatonin-induced activity (release) of ATPase” value in the test on Pasteurella multocida [3] (FIG. 23) is reported as “significantly reduces”. The “effect of exogenous citric acid on bacteriostatic effect of melatonin” value with Klebsiella pneumoniae and with Pseudomonas aeruginosa was “can reduce the bacteriostatic effect of melatonin” in each case.
